From US7877241B2, “System and method for identifying behavioral signatures” (University of Maryland, Baltimore, priority 2005, dated 2011)
Where two headings read alike, the source gives them in different places.

Legend:
[1] = test system: behavioral effects of cocaine; settings: in vivo; cited from earlier work
C57BL/6J mice = settings: cited from earlier work
C57BL/6J males = assay: SEE open-field test with pattern screening of mice injected with anxiolytic and anxiogenic drugs; type: in vivo, mouse; settings: vs vehicle, diazepam 1 or 2 mg/kg, FG-7142 10 mg/kg, PTZ 20 mg/kg, i.p., training set only
Protocol: Behavioral data for the exemplary embodiments was gathered using the SEE open-field test described above. A mouse was introduced to a 2.5 meter circular pen and allowed to freely explore the pen for 30 minutes while the mouse's location was video-tracked and digitized at a rate of 25-30 Hz with a spatial resolution of approximately 1 cm. The tracked coordinates are stored on a storage device and imported into the SEE software. Using SEE software procedures the path is further smoothed and segmented into stops and progression segments. The data file of each animal thus included 45,000-54,000 data pints of its coordinates in the arena. Because small, local movements during stopping cannot be properly captured using available tracking technology, the analysis was limited to progression segments. Depending on the activity of the test subject, progression segments generally contain […] (100-1000 s) per animal. […]
FIG. 3 is a flow chart for a method of isolating candidate behavioral patterns according to an embodiment of the present invention. In step 302, the data points are quantified for a feature vector. In the embodiment of the present invention being described, each data point observed during the animal progression is quantified using seven “features” (variables) (t, d, v, a, j, h, c). […]
In step 306, the difference in relative frequencies are analyzed. […]

DBA/2J mice = settings: cited from earlier work
[2] = database having only C57BL/6J mice

## O=C(NCCCCN1CCN(c2cccc(Cl)c2Cl)CC1)c1ccc2c(c1)Cc1ccccc1-2 [NGB2904]
[1]
  antagonizing the behavioral effects of cocaine: effective in antagonizing the behavioral effects of cocaine

## C1CCc2nnnn2CC1 [pentylenetetrazole]
C57BL/6J mice; [2]
  path curvature: increased

## CNC(=O)c1cc2c(cn1)[nH]c1ccccc12 [FG 7142, b-Carboline-3-carboxylic acid N-methylamide]
C57BL/6J mice; [2]
  path curvature: increased

## CN1C(=O)CN=C(c2ccccc2)c2cc(Cl)ccc21 [diazepam]
C57BL/6J males; FIG. 6A
  relative frequency of performing first pattern (3,*,*,4,1,*,3): significantly reduced
C57BL/6J males; FIG. 6B
  relative frequency of performing second pattern (3,1,4,*,3,5,*): dose-dependent effect
C57BL/6J mice; [2]
  path curvature: dose-dependently decreased

## CCCCN1[C@@H]2CC[C@H]1CC(OC(c1ccc(F)cc1)c1ccc(F)cc1)C2 (some centres unmarked) [JHW007]
[1]
  antagonizing the behavioral effects of cocaine: effective in antagonizing the behavioral effects of cocaine

## CC(N)Cc1ccccc1 (centres unmarked) [amphetamine]
C57BL/6J mice; C57BL/6J strain (both strains)
  increase in distance traveled: 3 fold
C57BL/6J mice; C57BL/6 mice, genotype comparison DBA/2J vs. C57BL/6J
  path curvature: decreased
DBA/2J mice; BDA/2J mice (so in the source), genotype comparison DBA/2J vs. C57BL/6J
  path curvature: no effect
DBA/2J mice; DBA/2J strain (both strains)
  increase in distance traveled: 3 fold
